Experiments:
Assay type in all cases: in vivo
pear tree (Housui) = assay: reducing water core and improving fruit quality, spray on pear tree
Protocol: The effects of a quality improver in reducing water core and improving fruit quality were evaluated using a pear tree (Housui).
That is, the quality improver of Example 1 was sprayed on the pear tree at the polyvalent metal concentrations shown in Table 14 over four times from late April (ten-day interval) and two times from middle July (ten-day interval). Each treatment was conducted on each branch by spraying with a backpack sprayer.
The evaluation was carried out on 30 randomly selected fruits. The degree of water core was evaluated by examining three cross sections of the stalk cavity part, the equatorial part, and the calyx end part of the fruit based on a 4-point scale (none=0, mild=1, moderate=2, severe=3). The result of the evaluation was expressed by the following equation: water core index={(1×the number of fruits with mild water core)+(2×the number of fruits with moderate water core)+(3×the number of fruits with severe water core)}/(the number of fruits examined). The fruit with a water core index of 2 or 3 was considered as a seriously damaged fruit. The ground color of fruit skin was determined using a color chart for Japanese pear based on a scale of 1 (immature) to 6 (overmature). The sugar content was determined using a sugar refractometer. The dirt on a fruit surface was evaluated by a ratio of the surface area soiled whitish to the total surface area of the fruit on a scale of 1 to 5 (not soiled=1, slightly soiled=2, a little soiled=3, moderately soiled=4, much soiled=5). The phytotoxicity was evaluated on a scale of 1 to 5 (normal=1, slightly damaged=2, a little damaged=3, moderately damaged=4, much damaged=5).
The examinations were carried out in the same manner as in Application Example 94 except that the quality improvers of Examples 2 to 4, 6 to 7, 12, 14, 17 to 18, and Comparative Examples 1 to 4 were used instead of the quality improver of Example 1.

[1] = tested on: Welsh onion plant (Sakaiyakko); assay: reducing leaf blight and improving quality, spray on Welsh onion plant; details: for Leaf blight: leaf blight index, 50 plants, sprayed three times; for Phytotoxicity: scale of 1 to 5
Protocol: The effects of a quality improver in reducing leaf blight and improving fruit quality were evaluated using a Welsh onion plant (Sakaiyakko).
That is, the quality improver of Example 1 was sprayed on the Welsh onion at the polyvalent metal concentrations shown in Table 7 over three times from early June (one-week interval) using a backpack sprayer.
The evaluation was carried out on 50 randomly selected plants. The leaf blight was determined by evaluating the degree of leaf blight based on a 4-point scale (none=0, mild=1, moderate=2, severe=3), and expressed by the following equation: leaf blight index={(1×the number of plants with mild leaf blight)+(2×the number of plants with moderate leaf blight)+(3×the number of plants with severe leaf blight)}×100/(3× the number of plants examined). In addition, plant length, plant weight, the number of leaves, and yield were evaluated. The dirt on a leaf surface was evaluated by a ratio of the surface area soiled whitish to the total surface area of the leaf on a scale of 1 to 5 (not soiled=1, slightly soiled=2, a little soiled=3, moderately soiled=4, much soiled=5). The phytotoxicity was evaluated on a scale of 1 to 5 (normal=1, slightly damaged=2, a little damaged=3, moderately damaged=4, much damaged=5).
The examinations were carried out in the same manner as in Application Example 43 except that the quality improvers of Examples 2 to 21 and Comparative Examples 1 to 4 were used instead of the quality improver of Example 1.

[2] = tested on: cherry fruit tree (Satonishiki); assay: reducing fruit-cracking and improving fruit quality, spray on cherry fruit tree
Protocol: The effects of a quality improver in reducing fruit-cracking and improving fruit quality were evaluated using a cherry fruit tree (Satonishiki). That is, the quality improver of Example 1 was sprayed on the cherry fruit tree at the polyvalent metal concentrations shown in Table 10 over three times from early May (two-week interval). Each treatment was conducted on each branch by spraying with a backpack sprayer.
The evaluation was carried out on 50 randomly selected fruits. The incidence of fruit-cracking was expressed as a ratio of the number of fruits with cracking to the total number of fruits examined. The degree of fruit coloring was expressed as the colored area of a fruit. The sugar content was determined using a sugar refractometer. The acidity was expressed as titratable malic acid content. The dirt on a fruit surface was evaluated by a ratio of the surface area soiled whitish to the total surface area of the fruit on a scale of 1 to 5 (not soiled=1, slightly soiled=2, a little soiled=3, moderately soiled=4, much soiled=5). The phytotoxicity was evaluated on a scale of 1 to 5 (normal=1, slightly damaged=2, a little damaged=3, moderately damaged=4, much damaged=5).
The examinations were carried out in the same manner as in Application Example 64 except that the quality improvers of Examples 2 to 4, 6 to 7, 12, 14, 17 to 18, and Comparative Examples 1 to 4 were used instead of the quality improver of Example 1.

Row | Compound | Ground color (pear tree (Housui); polyvalent metal 0.030 wt. %) | Phytotoxicity (pear tree (Housui); polyvalent metal 0.030 wt. %) | Seriously damaged fruit (pear tree (Housui); polyvalent metal 0.030 wt. %) [%] | Sugar content (pear tree (Housui); polyvalent metal 0.030 wt. %) | Water core index (pear tree (Housui); polyvalent metal 0.030 wt. %) | Ground color (pear tree (Housui); polyvalent metal 0.075 wt. %) | Phytotoxicity (pear tree (Housui); polyvalent metal 0.075 wt. %) | Seriously damaged fruit (pear tree (Housui); polyvalent metal 0.075 wt. %) [%] | Sugar content (pear tree (Housui); polyvalent metal 0.075 wt. %) | Water core index (pear tree (Housui); polyvalent metal 0.075 wt. %) | Leaf blight ([1]; polyvalent metal 0.030 wt. %) | Leaf blight ([1]; polyvalent metal 0.075 wt. %) | Number of leaves ([1]; polyvalent metal 0.030 wt. %) | Plant length ([1]; polyvalent metal 0.030 wt. %) | Plant weight ([1]; polyvalent metal 0.030 wt. %) | Number of leaves ([1]; polyvalent metal 0.075 wt. %) | Plant length ([1]; polyvalent metal 0.075 wt. %) | Plant weight ([1]; polyvalent metal 0.075 wt. %) | Phytotoxicity ([1]; polyvalent metal 0.030 wt. %) | Phytotoxicity ([1]; polyvalent metal 0.075 wt. %) | also measured
1 | [Ca+2].[Cl-].[Cl-] [calcium chloride] | 3.7 | 4 | 30.0 | 12.8 | 0.97 | 3.5 | 4 | 26.7 | 12.6 | 0.90 | 42.0 | 40.0 | 30.3 | 59.2 | 185 | 31.3 | 60.9 | 189 | 4 | 4 | Acidity ([2]; polyvalent metal 0.030 wt. %): 0.64; Degree of fruit coloring ([2]; polyvalent metal 0.030 wt. %): 79.2; Incidence of fruit-cracking ([2]; polyvalent metal 0.030 wt. %): 18.2%; Phytotoxicity ([2]; polyvalent metal 0.030 wt. %): 4; Sugar content ([2]; polyvalent metal 0.030 wt. %): 19.4; Acidity ([2]; polyvalent metal 0.075 wt. %): 0.66; Degree of fruit coloring ([2]; polyvalent metal 0.075 wt. %): 78.4; Incidence of fruit-cracking ([2]; polyvalent metal 0.075 wt. %): 18.5%; Phytotoxicity ([2]; polyvalent metal 0.075 wt. %): 4; Sugar content ([2]; polyvalent metal 0.075 wt. %): 19.2
2 | O=C[O-].O=C[O-].[Ca+2] [calcium formate] | 3.6 | 3 | 23.3 | 13.0 | 0.80 | 3.8 | 3 | 16.7 | 13.2 | 0.77 | 30.0 | 28.0 | 34.2 | 60.8 | 185 | 35.6 | 62.8 | 191 | 3 | 3 | Acidity ([2]; polyvalent metal 0.030 wt. %): 0.63; Degree of fruit coloring ([2]; polyvalent metal 0.030 wt. %): 80.5; Incidence of fruit-cracking ([2]; polyvalent metal 0.030 wt. %): 16.1%; Phytotoxicity ([2]; polyvalent metal 0.030 wt. %): 3; Sugar content ([2]; polyvalent metal 0.030 wt. %): 19.9; Acidity ([2]; polyvalent metal 0.075 wt. %): 0.62; Degree of fruit coloring ([2]; polyvalent metal 0.075 wt. %): 80.3; Incidence of fruit-cracking ([2]; polyvalent metal 0.075 wt. %): 15.6%; Phytotoxicity ([2]; polyvalent metal 0.075 wt. %): 3; Sugar content ([2]; polyvalent metal 0.075 wt. %): 20.2

Source: patent US8404619B2, “Particulate plant treatment composition” (Maruo Calcium Company Limited, priority 2005, dated 2013)
